Source: patent publication US7816400B2 (The University of Hong Kong, priority 2007, dated 2010)
Entries after “also recorded” stand apart in the source; their conditions may differ.

How the values were obtained:
Assay type in all cases: cell-based
[1] = target: T1, IKur (Homo sapiens, UniProt P22460); assay: IKur in human atrial myocytes, whole-cell patch clamp; settings: for inhibition of voltage-dependent IKur (tail and step currents), in words: 3, 10 and 30 μM
T1 construct: endogenous in cells; host or cells: human right atrial myocytes, freshly isolated
Protocol: (§1) Atrial cells were isolated from specimens of human right atrial appendage obtained from patients (56.1±4.7 years old) undergoing coronary artery bypass grafting. […] After excision, the samples were quickly immersed in oxygenated, normally Ca^2+-free cardioplegic solution for transport to the laboratory. […] Briefly, the atrial tissue was minced, and gently agitated by continuous bubbling with 100% O2 in a Ca^2+-free Tyrode solution for 15 min (5 min at a time in fresh solutions), and then incubated for 50 min in a similar solution containing 150-200 U/ml collagenase (CLS II, Worthington Biochemical, Freehold, N.J., USA), 0.2 mg/ml protease (type XXIV, Sigma-Aldrich Chemical, St Louis, Mo., USA.) and 1 mg/ml bovine serum albumin (Sigma-Aldrich). After then, the chunks were re-incubated in a fresh enzyme solution of the same composition but no protease. The quantity and quality of isolated cells were monitored under a microscope. When the cell yield appeared optimal, the chunks were suspended in a high K medium containing (mM) 10 KCl, 120 K-glutamate, 10 KH2PO4, 1.8 MgSO4, 10 taurine, 10 HEPES, 0.5 EGTA, 20 glucose, 10 mannitol, pH was adjusted to 7.3 with KOH and gently blown with a pipette. The isolated myocytes were kept at room temperature in the medium at least 1 h before use.
(§2) The Ca^2+-free cardioplegic solution for specimen transport contained (in mM) 50 KH2PO4, 8 MgSO4, 5 adenosine, 10 HEPES, 140 glucose, 100 mannitol, 10 taurine, pH was adjusted to 7.3 with KOH. Tyrode solution contained (in mM) 140 NaCl, 5.4 KCl, 1 MgCl2, 1 CaCl2, 0.33 NaH2PO4, 10 HEPES, 10 glucose, pH was adjusted to 7.4 with NaOH. The pipette solution contained (in mM) 20 KCl, 110 K-aspartate, 1 MgCl2, 10 HEPES, 5 EGTA, 0.1 GTP, 5 Na2-phosphocreatine, and 5 Mg2-ATP, pH was adjusted to 7.2 with KOH. For Ito and IKur recording, BaCl2 (200 μM) and CdCl2 (200 μM) were added to the superfusion to block IK1 and ICa.L. Atropine (1.0 μM) was used to minimize possible IK.ACh contamination during the current recording. For ICa.L recording, K^+ in pipette and Tyrode solution was replaced by CsCl. INa was recorded under conditions of K^+-free and a symmetrical Na^+ (5 mM) in pipette and superfusion solutions as described previously (Li at al., 2002a).
A small aliquot of the solution containing the isolated cells was placed in an open perfusion chamber (1-ml) mounted on the stage of an inverted microscope. […]
The whole-cell patch-clamp technique was used for electrophysiological recording. […] Membrane currents were recorded in voltage-clamp mode using an EPC-9 amplifier and Pulse software (HEKA, Lambrecht, Germany). […] The cell membrane capacitance (pF) was directly measured using the lock-in module of the Pulse software, and used for normalizing the current in individual cells.

[2] = target: T2, Ito (Homo sapiens, UniProt Q9UK17); assay: Ito in human atrial myocytes, whole-cell patch clamp; settings: for voltage-dependence of steady-state inactivation and activation of Ito, in words: 10 μM
T2 sequence (Q9UK17 1-655): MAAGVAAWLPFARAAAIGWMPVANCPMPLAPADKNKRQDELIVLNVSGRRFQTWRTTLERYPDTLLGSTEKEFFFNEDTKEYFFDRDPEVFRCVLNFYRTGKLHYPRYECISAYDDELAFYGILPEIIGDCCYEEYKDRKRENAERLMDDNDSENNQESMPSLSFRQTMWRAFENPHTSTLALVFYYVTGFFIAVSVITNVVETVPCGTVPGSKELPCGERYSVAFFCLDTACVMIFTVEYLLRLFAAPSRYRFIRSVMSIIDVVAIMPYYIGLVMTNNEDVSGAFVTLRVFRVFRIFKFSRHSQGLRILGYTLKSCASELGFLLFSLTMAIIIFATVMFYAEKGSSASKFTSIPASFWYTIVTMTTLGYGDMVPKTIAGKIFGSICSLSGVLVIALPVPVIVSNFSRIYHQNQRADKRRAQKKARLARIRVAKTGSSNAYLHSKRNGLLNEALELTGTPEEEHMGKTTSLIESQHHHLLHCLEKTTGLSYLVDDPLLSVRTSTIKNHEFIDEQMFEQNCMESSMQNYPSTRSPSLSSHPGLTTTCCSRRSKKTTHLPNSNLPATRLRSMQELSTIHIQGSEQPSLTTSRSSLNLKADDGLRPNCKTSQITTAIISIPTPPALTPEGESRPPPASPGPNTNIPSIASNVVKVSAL
T2 sequence (Q9NS61 1-270 partner): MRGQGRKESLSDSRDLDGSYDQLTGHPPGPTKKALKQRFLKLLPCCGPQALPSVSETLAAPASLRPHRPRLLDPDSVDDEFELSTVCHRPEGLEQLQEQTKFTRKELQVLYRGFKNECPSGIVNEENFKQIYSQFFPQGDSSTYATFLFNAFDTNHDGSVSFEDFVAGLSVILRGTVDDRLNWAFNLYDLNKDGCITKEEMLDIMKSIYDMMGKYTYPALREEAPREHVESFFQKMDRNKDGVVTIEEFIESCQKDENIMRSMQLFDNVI
Protocol: as §1, §2
(§3) A small aliquot of the solution containing the isolated cells was placed in an open perfusion chamber (1-ml) mounted on the stage of an inverted microscope. Myocytes were allowed to adhere to the bottom of the chamber for 5-10 min and were the superfused at 2-3 ml/min with Tyrode solution. Only quiescent rod-shaped cells with clear cross-striations were used. The studies were conducted at room temperature (21-22° C.) for current recording or 36° C. for action potential recording.
The whole-cell patch-clamp technique was used for electrophysiological recording. Borosilicate glass electrodes (1.2-mm OD) were pulled with a Brown-Flamming puller (model P-97, Sutter Instrument Co, Novato, Calif., USA) and had tip resistances of 2-3 MΩ when filled with pipette solution. Membrane currents were recorded in voltage-clamp mode using an EPC-9 amplifier and Pulse software (HEKA, Lambrecht, Germany). A 3-M KCl-agar salt bridge was used as reference electrode. The tip potentials were compensated before the pipette touched the cell. After a giga-ohm seal was obtained, the cell membrane was ruptured by gentle suction to establish the whole-cell configuration. The cell membrane capacitance (pF) was directly measured using the lock-in module of the Pulse software, and used for normalizing the current in individual cells.

[3] = tested on: human atrial myocytes; assay: Action potential in human atrial myocytes, perforated patch, current clamp
Description: Atrial cells were isolated from specimens of human right atrial appendage obtained from patients (56.1±4.7 years old) undergoing coronary artery bypass grafting. […] All patients were free from supraventricular tachyarrythmias, and the atria were grossly normal at the time of surgery. After excision, the samples were quickly immersed in oxygenated, normally Ca^2+-free cardioplegic solution for transport to the laboratory. Atrial myocytes were enzymatically dissociated as described previously (Tian et al., 2006; Gao et al., 2004). Briefly, the atrial tissue was minced, and gently agitated by continuous bubbling with 100% O2 in a Ca^2+-free Tyrode solution for 15 min (5 min at a time in fresh solutions), and then incubated for 50 min in a similar solution containing 150-200 U/ml collagenase (CLS II, Worthington Biochemical, Freehold, N.J., USA), 0.2 mg/ml protease (type XXIV, Sigma-Aldrich Chemical, St Louis, Mo., USA.) and 1 mg/ml bovine serum albumin (Sigma-Aldrich). After then, the chunks were re-incubated in a fresh enzyme solution of the same composition but no protease. The quantity and quality of isolated cells were monitored under a microscope. When the cell yield appeared optimal, the chunks were suspended in a high K medium containing (mM) 10 KCl, 120 K-glutamate, 10 KH2PO4, 1.8 MgSO4, 10 taurine, 10 HEPES, 0.5 EGTA, 20 glucose, 10 mannitol, pH was adjusted to 7.3 with KOH and gently blown with a pipette. The isolated myocytes were kept at room temperature in the medium at least 1 h before use.
as §3
The whole-cell patch-clamp technique was used for electrophysiological recording. Borosilicate glass electrodes (1.2-mm OD) were pulled with a Brown-Flamming puller (model P-97, Sutter Instrument Co, Novato, Calif., USA) and had tip resistances of 2-3 MΩ when filled with pipette solution. […] A 3-M KCl-agar salt bridge was used as reference electrode. The tip potentials were compensated before the pipette touched the cell. After a giga-ohm seal was obtained, the cell membrane was ruptured by gentle suction to establish the whole-cell configuration. […] The series resistance (Rs) was 3-5 MΩ and was compensated by 50-70% to minimize voltage errors. Perforated patch configuration was used for recording action potential in human atrial cells and IKs in HEK 293 cells as described previously (Li et al., 2002b; Dong et al., 2006). Current signals were low-pass filtered at 5 kHz and stored on the hard disk of an IBM compatible computer.

[4] = tested on: IK1; assay: IK1 in guinea pig ventricular myocytes; settings: 30 and 100 μM
Protocol: Guinea pigs of either gender (250-300 g) were sacrificed by cervical dislocation after anesthetization with pentobarbital (40 mg kg, i.p.). The procedure related to the use of animals in this invention was approved by the Animal Care and Use Committee for Teaching and Research of University of Hong Kong in accordance with the Guide for the Care and Use of Laboratory Animals (Institute of Laboratory Animal Resources, Commission on Life Sciences, National Research Council, 1996). Left atrial and ventricular myocytes from guinea pig hearts were enzymatically dissociated by the procedure described previously (Li et al., 2002a) and the isolated myocytes were kept in the K^+ storage medium.
The whole-cell patch-clamp technique was used for electrophysiological recording. Borosilicate glass electrodes (1.2-mm OD) were pulled with a Brown-Flamming puller (model P-97, Sutter Instrument Co, Novato, Calif., USA) and had tip resistances of 2-3 MΩ when filled with pipette solution. Membrane currents were recorded in voltage-clamp mode using an EPC-9 amplifier and Pulse software (HEKA, Lambrecht, Germany). A 3-M KCl-agar salt bridge was used as reference electrode. The tip potentials were compensated before the pipette touched the cell. […] The cell membrane capacitance (pF) was directly measured using the lock-in module of the Pulse software, and used for normalizing the current in individual cells. […]

[5] = extract fraction / isolated compound, concentration not given

T1 sequence (P22460 whole entry): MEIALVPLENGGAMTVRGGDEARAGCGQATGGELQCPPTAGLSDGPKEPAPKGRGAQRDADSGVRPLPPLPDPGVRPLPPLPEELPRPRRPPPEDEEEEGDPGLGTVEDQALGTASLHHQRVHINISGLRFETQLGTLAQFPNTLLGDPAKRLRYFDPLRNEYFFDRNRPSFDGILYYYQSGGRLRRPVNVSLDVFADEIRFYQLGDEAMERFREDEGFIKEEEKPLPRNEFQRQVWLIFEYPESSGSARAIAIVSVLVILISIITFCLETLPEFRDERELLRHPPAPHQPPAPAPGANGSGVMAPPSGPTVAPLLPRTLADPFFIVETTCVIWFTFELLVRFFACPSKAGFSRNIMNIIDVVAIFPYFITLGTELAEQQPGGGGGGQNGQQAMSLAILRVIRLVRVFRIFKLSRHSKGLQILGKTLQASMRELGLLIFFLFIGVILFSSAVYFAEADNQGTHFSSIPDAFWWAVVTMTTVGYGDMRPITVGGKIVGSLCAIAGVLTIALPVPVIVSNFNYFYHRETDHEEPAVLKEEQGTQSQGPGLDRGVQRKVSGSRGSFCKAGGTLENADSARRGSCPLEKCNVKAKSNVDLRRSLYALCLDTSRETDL

## COc1ccc(-c2cc(=O)c3c(O)cc(O)cc3o2)cc1 [Acacetin, 5,7-dihydroxy-4′-methoxyflavone]
[1]
  inhibition of voltage-dependent IKur (tail and step currents), in words: substantially inhibited
[1]; listed as acacetin
  inhibition of voltage-dependent IKur (tail and step currents), in words: suppressed
[1]; [5]
  effect on IKur in human atrial myocytes, in words: blocking effect
[1]; human atrial myocytes, +40 mV, 0.3 to 100 μM, Hill equation fit, read-out: IC50 for inhibiting IKur
  IC50: 3.2 µM
[2]
  voltage-dependence of steady-state inactivation and activation of Ito, in words: did not affect
[2]; listed as acacetin
  voltage-dependence of steady-state inactivation and activation of Ito, in words: not affected; also recorded: without affecting
[2]; 3 and 10 μM, with 10 μM verapamil
  inhibition of voltage-dependent Ito, in words: substantially inhibited; also recorded: reduced
[2]; [5]
  effect on Ito in human atrial myocytes, in words: blocking effect
[2]; human atrial myocytes, +40 mV, IKur blocked with 10 μM verapamil, read-out: IC50 for inhibiting Ito
  IC50: 9.2 µM
[3]; 10 μM, 0.5 Hz vs 2 Hz
  rate dependence of APD prolongation, in words: slight rate-dependent increase; also recorded: slight rate-dependent prolongation
[3]; 5 and 10 μM, 0.5, 1.0, 2.0 Hz, 36° C.
  action potential duration (APD50, APD75, APD90), in words: significantly prolonged
[3]; 5 or 10 μM, 2 Hz
  resting membrane potential and amplitude of action potential, in words: without affecting
[4]
  effect on IK1, in words: no effect; also recorded: no inhibition
[4]; listed as acacetin
  effect on IK1, in words: no effects
